Values of other authors as cited in paper PMC9271465 (ESMO Open, 2022).
Like-named read-outs stand apart in the source and are kept apart here.

Assays:
[1] = test system: EGFR-mutated NSCLC; settings: cited from earlier work
[2] = cited from earlier work
[3] = test system: EGFR T790M+ NSCLC; settings: cited from earlier work
[4] = EGFR T790M+ advanced NSCLC after progression on prior EGFR-TKI
[5] = central nervous system activity
[6] = metastatic EGFR T790M+ NSCLC progressed during or after first-line EGFR-TKI

Structure (SMILES): C#Cc1cccc(Nc2ncnc3cc4c(cc23)OCCOCCOCCO4)c1 [Icotinib]
- median OS [1]: 30.5 months
- median PFS [1]: 11.2 months

Structure (SMILES): C=CC(=O)Nc1cccc(Oc2nc(Nc3ccc(N4CCN(C)CC4)c(F)c3)nc3[nH]ccc23)c1 [abivertinib]
- most common TRAEs [2]: rash/diarrhea

Structure (SMILES): C=CC(=O)Nc1cc(Nc2nccc(-c3cn(C4CC4)c4ccccc34)n2)c(OC)cc1N(C)CCN(C)C [almonertinib]
- intracranial ORR [3, 4]: 60.9%
- updated ORR [3, 4]: 68.9%
- DCR ([3]; phase I trial): 89%
- ORR ([3]; phase I trial): 50%
- PFS ([3]; phase I trial): 9.6 months

Structure (SMILES): C#Cc1cccc(Nc2ncnc3cc(OCCOC)c(OCCOC)cc23)c1 [erlotinib]
- median overall survival (OS) ([1]; EGFR-mutated NSCLC): 19.3-30.5 months
- median progression-free survival (PFS) ([1]; EGFR-mutated NSCLC): 9.7-10.8 months

Structure (SMILES): C=CC(=O)Nc1cc(Nc2nccc(-c3cn(C)c4ccccc34)n2)c(OCC(F)(F)F)nc1N(C)CCN(C)C [furmonertinib]
- ORR ([3]; EGFR T790M-mutated NSCLC): 74%
- median PFS ([3]; EGFR T790M-mutated NSCLC): 9.6 months

Structure (SMILES): C=CC(=O)Nc1cc(Nc2nccc(-n3cc(CN(C)C)c(-c4ccccc4)n3)n2)c(OC)cc1N1CCOCC1 [lazertinib]
- most common TRAEs [2]: rash/pruritis

Structure (SMILES): Cc1cc(C(=O)Nc2nc3cccc(Cl)c3n2[C@@H]2CCCCN(C(=O)/C=C/CN(C)C)C2)ccn1 [nazartinib]
- most common TRAEs [2]: rash/diarrhea

Structure (SMILES): C=CC(=O)Nc1cc(Nc2nccc(-c3cn(C)c4ccccc34)n2)c(OC)cc1N(C)CCN(C)C [osimertinib]
- intracranial DCR [3, 5]: 92%
- intracranial ORR [3, 5]: 54%
- ORR [3, 6]: 61%-71
- median PFS [3, 6]: 9.6-15.2 months
